Data published in publication PMC6979384, “Characterization of the plant homeodomain (PHD) reader family for their histone tail interactions” (Epigenetics & Chromatin, 2020).

Experiments:
Experiment in all cases: Histone peptide microarray
Format in all cases: binding, human
AIRE (PP) = conditions: AIRE (PP), GST-tagged; arrays performed twice, n of 4
Excerpt: (§1) To more comprehensively define the histone interactions of the 31 PHD readers identified from the domain microarray analyses, we probed each on an alternate microarray platform containing a library of 293 synthetic histone peptides with single or combinatorial PTMs (Additional file 2: Figure S4 and Additional file 3: Table S2).
(§2) The 31 GST-tagged PHD readers identified in the PHD finger domain array were expressed and purified as previously. Histone peptide arrays and peptide pulldown assays were conducted as recently described (specifically, the optimized protocol from Petell et al. for the former).
(§3) Supplementary file 13072_2020_328_MOESM3_ESM.xlsx: Additional file 3: Table S2. […] Excel Tab Peptide List is a compiled list of the entire 293 histone peptide library with amino acid sequence ranges. […] Each number corresponds to the peptide number designated in Peptide List. Excel Tab Average Signals is a compiled set of binding data: chromatin reader at 0.5 μM vs. entire 293 peptide library. Data is presented as the average and standard deviation of 4 replicates. The average signals are colored to indicate signal intensity with green being strong and white being weak/low. […] Key: red= stronger relative binding; blue = weaker relative binding. Excel Tab Array info summary is a table summarizing the domains, sequence coverage, array signal range, and noise for each of the GST-tagged readers assayed on the peptide microarrays.

BAZ2B = conditions: BAZ2B, GST-tagged; arrays performed twice, n of 4
Excerpt: as §1, §2, §3

BPTF (PB) = conditions: BPTF (PB), GST-tagged; arrays performed twice, n of 4
Excerpt: as §1, §2, §3

CHD4 (PPCC) = conditions: CHD4 (PPCC), GST-tagged; arrays performed twice, n of 4
Excerpt: as §1, §2, §3

CHD5 (PCC) = conditions: CHD5 (PCC), GST-tagged; arrays performed twice, n of 4
Excerpt: as §1, §2, §3

CHD5 (PPCC) = conditions: CHD5 (PPCC), GST-tagged; arrays performed twice, n of 4
Excerpt: as §1, §2, §3

DIDO1 = conditions: DIDO1, GST-tagged; arrays performed twice, n of 4
Excerpt: as §1, §2, §3

DPF2 (PPC2W2) = conditions: DPF2 (PPC2W2), GST-tagged; arrays performed twice, n of 4
Excerpt: as §1, §2, §3

ING1 = conditions: ING1, GST-tagged; arrays performed twice, n of 4
Excerpt: as §1, §2, §3

ING2 = conditions: ING2, GST-tagged; arrays performed twice, n of 4
Excerpt: as §1, §2, §3

ING3 = conditions: ING3, GST-tagged; arrays performed twice, n of 4
Excerpt: as §1, §2, §3

ING4 = conditions: ING4, GST-tagged; arrays performed twice, n of 4
Excerpt: as §1, §2, §3

ING5 = conditions: ING5, GST-tagged; arrays performed twice, n of 4
Excerpt: as §1, §2, §3

KDM4C (TTP) = conditions: KDM4C (TTP), GST-tagged; arrays performed twice, n of 4
Excerpt: as §1, §2, §3

KDM5A (1) = conditions: KDM5A (1), GST-tagged; arrays performed twice, n of 4
Excerpt: as §1, §2, §3

KDM5A (3) = conditions: KDM5A (3), GST-tagged; arrays performed twice, n of 4
Excerpt: as §1, §2, §3

KDM5B (3) = conditions: KDM5B (3), GST-tagged; arrays performed twice, n of 4
Excerpt: as §1, §2, §3

KDM7A = conditions: KDM7A, GST-tagged; arrays performed twice, n of 4
Excerpt: as §1, §2, §3

MLL5 = conditions: MLL5, GST-tagged; arrays performed twice, n of 4
Excerpt: as §1, §2, §3

MORC3 (CW) = conditions: MORC3 (CW), GST-tagged; arrays performed twice, n of 4
Excerpt: as §1, §2, §3

PHF13 = conditions: PHF13, GST-tagged; arrays performed twice, n of 4
Excerpt: as §1, §2, §3

PHF21A = conditions: PHF21A, GST-tagged; arrays performed twice, n of 4
Excerpt: as §1, §2, §3

PHF23 = conditions: PHF23, GST-tagged; arrays performed twice, n of 4
Excerpt: as §1, §2, §3

PHF2 = conditions: PHF2, GST-tagged; arrays performed twice, n of 4
Excerpt: as §1, §2, §3

PHF8 = conditions: PHF8, GST-tagged; arrays performed twice, n of 4
Excerpt: as §1, §2, §3

PHRF1 (RP) = conditions: PHRF1 (RP), GST-tagged; arrays performed twice, n of 4
Excerpt: as §1, §2, §3

RAG2 = conditions: RAG2, GST-tagged; arrays performed twice, n of 4
Excerpt: as §1, §2, §3

SP140L = conditions: SP140L, GST-tagged; arrays performed twice, n of 4
Excerpt: as §1, §2, §3

TAF3 = conditions: TAF3, GST-tagged; arrays performed twice, n of 4
Excerpt: as §1, §2, §3

TRIM66 (PB) = conditions: TRIM66 (PB), GST-tagged; arrays performed twice, n of 4
Excerpt: as §1, §2, §3

Substance	Array Heatmap value (peptide array binding signal) (AIRE (PP))	Array Heatmap value (peptide array binding signal) (BAZ2B)	Array Heatmap value (peptide array binding signal) (BPTF (PB))	Array Heatmap value (peptide array binding signal) (CHD4 (PPCC))	Array Heatmap value (peptide array binding signal) (CHD5 (PCC))	Array Heatmap value (peptide array binding signal) (CHD5 (PPCC))	Array Heatmap value (peptide array binding signal) (DIDO1)	Array Heatmap value (peptide array binding signal) (DPF2 (PPC2W2))	Array Heatmap value (peptide array binding signal) (ING1)	Array Heatmap value (peptide array binding signal) (ING2)	Array Heatmap value (peptide array binding signal) (ING3)	Array Heatmap value (peptide array binding signal) (ING4)	Array Heatmap value (peptide array binding signal) (ING5)	Array Heatmap value (peptide array binding signal) (KDM4C (TTP))	Array Heatmap value (peptide array binding signal) (KDM5A (1))	Array Heatmap value (peptide array binding signal) (KDM5A (3))	Array Heatmap value (peptide array binding signal) (KDM5B (3))	Array Heatmap value (peptide array binding signal) (KDM7A)	Array Heatmap value (peptide array binding signal) (MLL5)	Array Heatmap value (peptide array binding signal) (MORC3 (CW))	other results
H4K8ac + K12ac + K16ac: H4 1-23	0.4841	0.4965	0.384	0.6125	0.7879	0.614	0.7526	0.6365	0.5851	0.6214	0.5255	0.4992	0.3961	0.5459	0.498	0.5089	0.4821	0.4096	0.5342	0.3996	Array Heatmap value (peptide array binding signal) (PHF13): 0.6695; Array Heatmap value (peptide array binding signal) (PHF21A): 0.5044; Array Heatmap value (peptide array binding signal) (PHF23): 0.5595; Array Heatmap value (peptide array binding signal) (PHF2): 0.546; Array Heatmap value (peptide array binding signal) (PHF8): 0.3768; Array Heatmap value (peptide array binding signal) (PHRF1 (RP)): 0.4693; Array Heatmap value (peptide array binding signal) (RAG2): 0.271; Array Heatmap value (peptide array binding signal) (SP140L): 0.383; Array Heatmap value (peptide array binding signal) (TAF3): 0.2999; Array Heatmap value (peptide array binding signal) (TRIM66 (PB)): 0.6251
H4K8ac + K12ac: H4 1-23	0.5703	0.5085	0.3598	0.5759	0.8072	0.5916	0.6459	0.6914	0.5248	0.5831	0.4849	0.4864	0.3813	0.5553	0.4987	0.4276	0.5016	0.4671	0.5505	0.3777	Array Heatmap value (peptide array binding signal) (PHF13): 0.6286; Array Heatmap value (peptide array binding signal) (PHF21A): 0.4992; Array Heatmap value (peptide array binding signal) (PHF23): 0.5272; Array Heatmap value (peptide array binding signal) (PHF2): 0.4562; Array Heatmap value (peptide array binding signal) (PHF8): 0.3425; Array Heatmap value (peptide array binding signal) (PHRF1 (RP)): 0.4073; Array Heatmap value (peptide array binding signal) (RAG2): 0.2531; Array Heatmap value (peptide array binding signal) (SP140L): 0.3826; Array Heatmap value (peptide array binding signal) (TAF3): 0.2763; Array Heatmap value (peptide array binding signal) (TRIM66 (PB)): 0.5841
H4K8ac + K20ac: H4 1-23	0.5419	0.4848	0.3587	0.5794	0.8384	0.5684	0.6199	0.6725	0.5081	0.5825	0.4639	0.4785	0.3709	0.5368	0.512	0.4422	0.4924	0.4148	0.5364	0.3621	Array Heatmap value (peptide array binding signal) (PHF13): 0.5975; Array Heatmap value (peptide array binding signal) (PHF21A): 0.4807; Array Heatmap value (peptide array binding signal) (PHF23): 0.5223; Array Heatmap value (peptide array binding signal) (PHF2): 0.4411; Array Heatmap value (peptide array binding signal) (PHF8): 0.3864; Array Heatmap value (peptide array binding signal) (PHRF1 (RP)): 0.4283; Array Heatmap value (peptide array binding signal) (RAG2): 0.2452; Array Heatmap value (peptide array binding signal) (SP140L): 0.3646; Array Heatmap value (peptide array binding signal) (TAF3): 0.2852; Array Heatmap value (peptide array binding signal) (TRIM66 (PB)): 0.5664
